# Values of other authors in the PKSmart pharmacokinetics tables (Seal et al. 2025).
# Experiment: not given per row; by the article one of three: Lombardo et al. 2013, J Clin Pharmacol 53:178, doi 10.1177/0091270012440282; 'New Drugs at FDA', novel drug approvals for 2021 and 2022 (the article's reference 43); Yap, Li, Chen 2006, J Mol Graph Model 24:383, doi 10.1016
# Details: human; in vivo
SMILES,Vd,clearance,half-life
COC(=O)C(c1ccccc1)C1CCCCN1C(=O)OC[n+]1cccc(C(=O)NC(CO)C(=O)[O-])c1 (configuration not stated),29.3 L/kg,60 mL/min/kg,5.7 h
COc1cccc2c1C(=O)c1c(O)c3c(c(O)c1C2=O)C[C@](O)(C(=O)CO)C[C@@H]3O[C@@H]1C[C@H](N)[C@@H](O)[C@H](C)O1,,16.5 mL/min/kg,
CC(NC(CCc1ccccc1)C(=O)O)C(=O)N1C(C(=O)O)C[C@@H]2CCCC[C@@H]21 (some centres not stated),,1.67 mL/min/kg,
O=C(OCCN1CCCCCC1)C(c1ccsc1)C1CCCCC1 (configuration not stated),,18.3 mL/min/kg,
CN1CCN2c3ncccc3Cc3ccccc3[C@@H]2C1,,8.25 mL/min/kg,
C=C1C[C@@H]2C(CC[C@]3(C)C(=O)CC[C@@H]23)[C@]2(C)C=CC(=O)C=C12 (some centres not stated),,145 mL/min/kg,
Cc1cccc(C)c1OC[C@@H](C)N,,6.3 mL/min/kg,
CNC[C@@H](O)c1cccc(O)c1,,29.9 mL/min/kg,
NC(=O)N1c2ccccc2C=Cc2ccccc21,,1.11 mL/min/kg,
NC[C@H]1O[C@@H](O[C@H]2C(O)[C@@H](O[C@H]3O[C@@H](CO)[C@H](O)[C@@H](N)[C@@H]3O)[C@H](N)C[C@@H]2N)[C@H](N)C[C@@H]1O (some centres not stated),,1.35 mL/min/kg,
CON=C(C(=O)NC1C(=O)N2C(C(=O)O)=CCS[C@H]12)c1csc(=N)[nH]1 (some centres not stated),,1.79 mL/min/kg,
CN(C[C@H](O)CO)C(=O)c1c(I)c(NC(=O)C(CO)CO)c(I)c(C(=O)N(C)C[C@H](O)CO)c1I,,1.33 mL/min/kg,
COCCCOc1ccnc(C[S@@+](O)c2nc3ccccc3[n-]2)c1C,,6 mL/min/kg,
COc1ccnc(C[S@@+](O)c2nc3cc(OC(F)F)ccc3[n-]2)c1OC,,2.57 mL/min/kg,
CCCCN(CCCC)C[C@H](O)c1cc(Cl)cc2c1-c1ccc(Cl)cc1/C2=C/c1ccc(Cl)cc1,,3.57 mL/min/kg,
CCCCCCCN(CC)CCC[C@@H](O)c1ccc(NS(C)(=O)=O)cc1,,29 mL/min/kg,
CC(=O)OCC1=C(C(=O)O)N2C(=O)C(NC(=O)Cc3cccs3)[C@@H]2SC1 (some centres not stated),,6.7 mL/min/kg,
O=C(CCC(C(=O)O)N1CCN(C(CCC(=O)NCC(O)CO)C(=O)O)Cc2cccc(n2)CN(C(CCC(=O)NCC(O)CO)C(=O)O)CC1)NCC(O)CO (configuration not stated),0.22 L/kg,1.67 mL/min/kg,1.5 h
CC(C(=O)O)c1ccc(-c2ccccc2)c(F)c1 (configuration not stated),,0.35 mL/min/kg,
CC(C)Oc1ccc(-c2nn([C@@H](C)c3oc4ccc(F)cc4c(=O)c3-c3cccc(F)c3)c3ncnc(N)c23)cc1F,5.2 L/kg,4.31 mL/min/kg,91 h

SMILES,Vd,clearance,half-life
O=C(O)CCCCCCNC1c2ccccc2CCc2ccccc21,,29.6 mL/min/kg,
Nc1nc2c(ncn2CCC(CO)CO)c(=O)[nH]1,,9.36 mL/min/kg,
Cc1ncc([N+](=O)[O-])n1C[C@@H](C)O,,0.4 mL/min/kg,
CN1c2c(oc(=O)n(-c3ccccn3)c2=O)-c2ccccc2S1(=O)=O,,0.05 mL/min/kg,
NC(=O)c1ccc2c(c1O)[C@]13CCN(CC4CC4)[C@H](C2)[C@]1(O)CCC(=O)C3,,11.1 mL/min/kg,9 h
CC(C)(C)NC[C@@H](O)COc1cccc2c1C[C@H](O)[C@@H](O)C2,,2.94 mL/min/kg,
NC(=O)c1cc[n+](CC2=C(C(=O)O)N3C(=O)C(NC(=O)C(c4ccccc4)S(=O)(=O)[O-])[C@@H]3SC2)cc1 (some centres not stated),,1.92 mL/min/kg,
CC(C)(C)NC[C@@H](O)c1cc(O)cc(O)c1,,4 mL/min/kg,
CC(C)NC(=O)COc1cccc(-c2nc(Nc3ccc4[nH]ncc4c3)c3ccccc3n2)c1,3.07 L/kg,2.73 mL/min/kg,19 h
CCCC(NC(C)C(=O)N1C(C(=O)O)C[C@@H]2CCCC[C@H]21)C(=O)OCC (some centres not stated),,6.19 mL/min/kg,
CON=C(C(=O)NC1C(=O)N2C(C(=O)[O-])=C(C[n+]3cccc4c3CCC4)CS[C@@H]12)c1csc(N)n1 (some centres not stated),,1.98 mL/min/kg,
CN1CCC[C@@H](n2nc(Cc3ccc(Cl)cc3)c3ccccc3c2=O)CC1,,8.33 mL/min/kg,
C[C@H](NCCC(c1ccccc1)c1ccccc1)c1ccccc1,,20 mL/min/kg,
COC(=O)Nc1c(N)nc(-c2nn(Cc3ccccc3F)c3ncc(F)cc23)nc1N,0.73 L/kg,0.44 mL/min/kg,30 h
CC/C(=C(/c1ccccc1)c1ccc(OCCN(C)C)cc1)c1ccccc1,,1.4 mL/min/kg,
COC(=O)C1[C@H](OC(=O)c2ccccc2)CC2CC[C@@H]1N2C (some centres not stated),,32 mL/min/kg,
C[C@]12C=CC(=O)N[C@@H]1CC[C@@H]1[C@H]2CC[C@]2(C)C(C(=O)Nc3cc(C(F)(F)F)ccc3C(F)(F)F)CC[C@@H]12 (some centres not stated),,0.14 mL/min/kg,
CC(C)N(CC[C@@](C(N)=O)(c1ccccc1)c1ccccn1)C(C)C,,2.7 mL/min/kg,
C[C@H](CCc1ccccc1)NC[C@@H](O)c1ccc(O)c(C(N)=O)c1,,28.1 mL/min/kg,
COC(=O)C(c1ccccc1)[C@@H]1CCCCN1 (some centres not stated),,9.44 mL/min/kg,

# Same assay, conditions: human; plasma
row,SMILES,fraction unbound
1,C=CC(=O)N1CC[C@H](n2nc(C#Cc3cc(OC)cc(OC)c3)c3c(N)ncnc32)C1,0.05
2,CC(=O)C1CC[C@H]2[C@@H]3CC[C@H]4C[C@](C)(O)CC[C@]4(C)[C@H]3CC[C@]12C (some centres not stated),0.01
3,C=CC(=O)N1CCN(c2nc(=O)n(-c3c(C)ccnc3C(C)C)c3nc(-c4c(O)cccc4F)c(F)cc23)[C@@H](C)C1,0.11
4,[2H]C([2H])([2H])NC(=O)c1nnc(NC(=O)C2CC2)cc1Nc1cccc(-c2ncn(C)n2)c1OC,0.14
5,C=C/C=C/C[C@@H](C)[C@@H](O)C1C(=O)NC(CC)C(=O)N(C)CC(=O)N(C)C(CC(C)C)C(=O)NC(C(C)C)C(=O)N(C)C(CC(C)C)C(=O)NC(C)C(=O)NC(C)C(=O)N(C)C(CC(C)C)C(=O)N(C)C(CC(C)C)C(=O)N(C)C(C(C)C)C(=O)N1C (some centres not stated),0.03
6,COc1ccc(-n2nccn2)c(C(=O)N2CCC[C@@]2(C)c2nc3c(C)c(Cl)ccc3[nH]2)c1,0.01
7,CCCCC1(CCCC)CS(=O)(=O)c2ccc(N(C)C)cc2[C@@H](c2ccc(OCc3ccc(C[N+]45CCN(CC4)CC5)cc3)cc2)[C@H]1O,0.09
8,CS(=O)(=O)c1ccc(Oc2cc(F)cc(C#N)c2)c2c1[C@H](O)[C@H](F)[C@@H]2F,0.55
9,Cc1ccc(NC(=O)C2CCCN(C(=O)c3c(C)cccc3F)[C@H]2c2ccc(NC3CCCC3)cc2)cc1C(F)(F)F (some centres not stated),0.01
10,C1=C/COCc2cc(ccc2OCCN2CCCC2)Nc2nccc(n2)-c2cccc(c2)COC/1,0.01
11,COC(=O)C(c1ccccc1)C1CCCCN1C(=O)OC[n+]1cccc(C(=O)NC(CO)C(=O)[O-])c1 (configuration not stated),0.44
12,CN1CCC(COc2cnc(-c3cccc(Cn4nc(-c5cccc(C#N)c5)ccc4=O)c3)nc2)CC1,0.02
13,O=C(CCC(C(=O)O)N1CCN(C(CCC(=O)NCC(O)CO)C(=O)O)Cc2cccc(n2)CN(C(CCC(=O)NCC(O)CO)C(=O)O)CC1)NCC(O)CO (configuration not stated),0.98
14,CC(C)Oc1ccc(-c2nn([C@@H](C)c3oc4ccc(F)cc4c(=O)c3-c3cccc(F)c3)c3ncnc(N)c23)cc1F,0.01
15,NC(=O)c1ccc2c(c1O)[C@]13CCN(CC4CC4)[C@H](C2)[C@]1(O)CCC(=O)C3,0.72
16,COC(=O)Nc1c(N)nc(-c2nn(Cc3ccccc3F)c3ncc(F)cc23)nc1N,0.02
